Measurements: patent US10087178B2, “Substituted spiropyrido[1,2-a]pyrazine derivative and medicinal use thereof as HIV integrase inhibitor” (priority 2012, dated 2018)
Where a name gives a salt, the structure may show the parent alone.

test system: HIV-1 NL4-3 strain; experiment: Evaluation of antiviral activity: acute infection system of MT-4 cell with HIV-1 NL4-3 strain; assay type: cell-based; details: Human immunodeficiency virus 1, NL43, MT4, 120 h, MT-4 cells infected with HIV-1 NL4-3 strain (MOI 0.05), cultured 5 days, Cell Titer-Glo; read-out: antiviral activity (EC50)

**Q.** Which EC50 does the source give for `CN1C[C@]2(C[C@H](O)C2)n2cc(C(=O)NCc3cccc(Cl)c3F)c(=O)c(O)c2C1=O` [Example S27, N-(3-chloro-2-fluorobenzyl)- cis-3,9′-dihydroxy-2′-methyl-1′,8′-dioxo-1′,2′,3′,8′-tetrahydrospiro[cyclobutane-1,4′-pyrido[1,2-a]pyrazine]-7′-carboxamide hydrochloride] here?
**A.** 14 nM

**Q.** With `CC(C)N1C(=O)c2c(O)c(=O)c(C(=O)NCc3ccc(F)cc3F)cn2C[C@]12C[C@@H](O)C2` [Example S54, N-(2,4-difluorobenzyl)- trans-3,9′-dihydroxy-2′-isopropyl-1′,8′-dioxo-1′,2′,4′,8′-tetrahydrospiro[cyclobutane-1,3′-pyrido[1,2-a]pyrazine]-7′-carboxamide hydrochloride] as the compound, how does the EC50 read?
**A.** 27 nM

**Q.** `COC[C@H]1C[C@@]12CN(C)C(=O)c1c(O)c(=O)c(C(=O)NCc3cc(N4CCCC4=O)cc(Cl)c3F)cn12` [Example T34, (1S,2S)-N-(3-chloro-2-fluoro-5-(2-oxopyrrolidin-1-yl)benzyl)-9′-hydroxy-2-(methoxymethyl)-2′-methyl-1′,8′-dioxo-1′,2′,3′,8′-tetrahydrospiro[cyclopropane-1,4′-pyrido[1,2-a]pyrazine]-7′-carboxamide] was tested. Which EC50 did it give?
**A.** 23 nM

**Q.** For `CO[C@H]1C[C@]2(CN(C)C(=O)c3c(OC(=O)C(C)C)c(=O)c(C(=O)NCc4cccc(Cl)c4F)cn32)C1` [Example S66, 7′-(3-chloro-2-fluorobenzylcarbamoyl)-cis-3-methoxy-2′-methyl-1′,8′-dioxo-1′,2′,3′,8′-tetrahydrospiro[cyclobutane-1,4′-pyrido[1,2-a]pyrazin]-9′-yl isobutyrate], which EC50 is on record?
**A.** 0.9 nM

**Q.** How did the EC50 turn out when `CC(C)N1C[C@]2(C[C@@H](CO)C2)n2cc(C(=O)NCc3ccc(F)cc3F)c(=O)c(O)c2C1=O` [Example S24, N-(2,4-difluorobenzyl)-9′-hydroxy-trans-3-(hydroxymethyl)-2′-isopropyl-1′,8′-dioxo-1′,2′,3′,8′-tetrahydrospiro[cyclobutane-1,4′-pyrido[1,2-a]pyrazine]-7′-carboxamide hydrobromide] was run?
**A.** 16 nM

**Q.** For `CCOC[C@H]1C[C@]2(CN(CC)C(=O)c3c(O)c(=O)c(C(=O)NCc4cccc(Cl)c4F)cn32)C1` [Example S48, N-(3-chloro-2-fluorobenzyl)- cis-3-(ethoxymethyl)-2′-ethyl-9′-hydroxy-1′,8′-dioxo-1′,2′,3′,8′-tetrahydrospiro[cyclobutane-1,4′-pyrido[1,2-a]pyrazine]-7′-carboxamide hydrochloride], which EC50 is on record?
**A.** 4.3 nM

**Q.** Which EC50 does the source give for `CCOC[C@H]1C[C@@]12Cn1cc(C(=O)NCc3ccc(F)cc3F)c(=O)c(O)c1C(=O)N2C(C)C` [Example T43, (1S,2S)-N-(2,4-difluorobenzyl)-2-(ethoxymethyl)-9′-hydroxy-2′-isopropyl-1′,8′-dioxo-1′,2′,4′,8′-tetrahydrospiro[cyclopropane-1,3′-pyrido[1,2-a]pyrazine]-7′-carboxamide] here?
**A.** 5.3 nM

**Q.** For `CCN1C[C@]2(C[C@H](CO)C2)n2cc(C(=O)NCc3cccc(Cl)c3F)c(=O)c(O)c2C1=O` [Example S46, N-(3-chloro-2-fluorobenzyl)-2′-ethyl-9′-hydroxy-cis-3-(hydroxymethyl)-1′,8′-dioxo-1′,2′,3′,8′-tetrahydrospiro[cyclobutane-1,4′-pyrido[1,2-a]pyrazine]-7′-carboxamide hydrochloride], which EC50 is on record?
**A.** 4.4 nM

same assay, conditions: Human immunodeficiency virus 1, NL43, MT4, 120 h, antiviral activity; MT-4 cells infected with HIV-1 NL4-3 (MOI 0.05), 5 days culture, Cell Titer-Glo luminescence

**Q.** With `CC(C)N1C[C@]2(C[C@H]2CS(C)(=O)=O)n2cc(C(=O)NCc3cccc(Cl)c3F)c(=O)c(O)c2C1=O` [Example 21, (1R,2R)—N-(3-chloro-2-fluorobenzyl)-9′-hydroxy-2′-isopropyl-2-(methylsulfonylmethyl)-1′,8′-dioxo-1′,2′,3′,8′-tetrahydrospiro[cyclopropane-1,4′-pyrido[1,2-a]pyrazine]-7′-carboxamide hydrochloride] as the compound, how does the EC50 read?
**A.** 48 nM

**Q.** How did the EC50 turn out when `CC(C)N1C[C@@]2(C[C@@H]2CO)n2cc(C(=O)NCc3ccc(F)cc3F)c(=O)c(O)c2C1=O` [Example 9, (1S,2S)—N-(2,4-difluorobenzyl)-9′-hydroxy-2-(hydroxymethyl)-2′-isopropyl-1′,8′-dioxo-1′,2′,3′,8′-tetrahydrospiro[cyclopropane-1,4′-pyrido[1,2-a]pyrazine]-7′-carboxamide hydrochloride] was run?
**A.** 5.6 nM

**Q.** `CC(C)N1C[C@]2(C[C@@H]2CO)n2cc(C(=O)NCc3ccc(F)cc3F)c(=O)c(O)c2C1=O` [Example 13, (1R,2S)—N-(2,4-difluorobenzyl)-9′-hydroxy-2-(hydroxymethyl)-2′-isopropyl-1′,8′-dioxo-1′,2′,3′,8′-tetrahydrospiro[cyclopropane-1,4′-pyrido[1,2-a]pyrazine]-7′-carboxamide hydrochloride] was tested. Which EC50 did it give?
**A.** 5.4 nM

same assay, conditions: Human immunodeficiency virus 1, NL43, MT4, 120 h, antiviral activity; MT-4 cells infected with HIV-1 NL4-3 (MOI 0.05), 5 days culture, Cell Titer-Glo luminescence; read-out: EC50

**Q.** With `CO[C@H]1C[C@]2(CN(C(C)C)C(=O)c3c(O)c(=O)c(C(=O)NCc4ccc(F)cc4F)cn32)C1` [Example S6, N-(2,4-difluorobenzyl)-9′-hydroxy-2′-isopropyl-cis-3-methoxy-1′,8′-dioxo-1′,2′,3′,8′-tetrahydrospiro[cyclobutane-1,4′-pyrido[1,2-a]pyrazine]-7′-carboxamide hydrochloride] as the compound, how does the EC50 read?
**A.** 3.7 nM

**Q.** For `CCN1C[C@]2(C[C@H](OC)C2)n2cc(C(=O)NCc3ccc(F)cc3F)c(=O)c(O)c2C1=O` [Example S20, N-(2,4-difluorobenzyl)-2′-ethyl-9′-hydroxy-cis-3-methoxy-1′,8′-dioxo-1′,2′,3′,8′-tetrahydrospiro[cyclobutane-1,4′-pyrido[1,2-a]pyrazine]-7′-carboxamide hydrochloride], which EC50 is on record?
**A.** 3.5 nM

**Q.** For `CN1C[C@]2(C[C@H](OCc3ccccc3)C2)n2cc(C(=O)NCc3ccc(F)cc3F)c(=O)c(O)c2C1=O` [Example S10, cis-3-(benzyloxy)-N-(2,4-difluorobenzyl)-9′-hydroxy-2′-methyl-1′,8′-dioxo-1′,2′,3′,8′-tetrahydrospiro[cyclobutane-1,4′-pyrido[1,2-a]pyrazine]-7′-carboxamide hydrochloride], which EC50 is on record?
**A.** 6.1 nM

**Q.** `CCN1C(=O)c2c(O)c(=O)c(C(=O)NCc3cccc(Cl)c3F)cn2C[C@@]12C[C@@H]2COC` [Example 17, (1S,2S)—N-(3-chloro-2-fluorobenzyl)-2′-ethyl-9′-hydroxy-2-(methoxymethyl)-1′,8′-dioxo-1′,2′,4′,8′-tetrahydrospiro[cyclopropane-1,3′-pyrido[1,2-a]pyrazine]-7′-carboxamide] was tested. Which EC50 did it give?
**A.** 3.4 nM

same assay, conditions: Human immunodeficiency virus 1, NL43, MT4, 120 h, read-out: antiviral activity (EC50), MT-4 cells infected with HIV-1 NL4-3 strain (MOI 0.05), cultured 5 days, Cell Titer-Glo

**Q.** Which EC50 does the source give for `COC[C@@H]1C[C@]12Cn1cc(C(=O)NCc3cccc(Cl)c3F)c(=O)c(O)c1C(=O)N2C` [Example T50, (1R,2R)-N-(3-chloro-2-fluorobenzyl)-9′-hydroxy-2-(methoxymethyl)-2′-methyl-1′,8′-dioxo-1′,2′,4′,8′-tetrahydrospiro[cyclopropane-1,3′-pyrido[1,2-a]pyrazine]-7′-carboxamide hydrochloride] here?
**A.** 3.7 nM

**Q.** Which EC50 does the source give for `COC[C@@H]1C[C@]12CN(C)C(=O)c1c(O)c(=O)c(C(=O)NCc3cccc(Cl)c3F)cn12` [Example T24, (1R,2R)-N-(3-chloro-2-fluorobenzyl)-9′-hydroxy-2-(methoxymethyl)-2′-methyl-1′,8′-dioxo-1′,2′,3′,8′-tetrahydrospiro[cyclopropane-1,4-pyrido[1,2-a]pyrazine]-7′-carboxamide hydrochloride] here?
**A.** 3.2 nM

**Q.** With `COC[C@H]1C[C@@]12CN(C)C(=O)c1c(O)c(=O)c(C(=O)NCc3ccc(F)cc3F)cn12` [Example T3, (1S,2S)-N-(2,4-difluorobenzyl)-9′-hydroxy-2-(methoxymethyl)-2′-methyl-1′,8′-dioxo-1′,2′,3′,8′-tetrahydrospiro[cyclopropane-1,4′-pyrido[1,2-a]pyrazine]-7′-carboxamide hydrochloride] as the compound, how does the EC50 read?
**A.** 4.5 nM

same assay, conditions: Human immunodeficiency virus 1, NL43, MT4, 120 h; read-out: antiviral activity (EC50)

**Q.** How did the EC50 turn out when `CN1C[C@]2(C[C@H](C(=O)O)C2)n2cc(C(=O)NCc3cccc(Cl)c3F)c(=O)c(O)c2C1=O` [Example 22, 7′-(3-chloro-2-fluorobenzylcarbamoyl)-9′-hydroxy-2′-methyl-1′,8′-dioxo-1′,2′,3′,8′-tetrahydrospiro[cyclobutane-1,4′-pyrido[1,2-a]pyrazine]-cis-3-carboxylic acid hydrochloride] was run?
**A.** 400 nM

**Q.** With `CO[C@H]1C[C@]2(CN(C)C(=O)c3c(O)c(=O)c(C(=O)NCc4cccc(Cl)c4F)cn32)C1` [Example 25, Monopotassium 7′-(3-chloro-2-fluorobenzylcarbamoyl)-cis-3-methoxy-2′-methyl-1′,8′-dioxo-1′,2′,3′,8′-tetrahydrospiro[cyclobutane-1,4′-pyrido[1,2-a]pyrazin]-9′-olate] as the compound, how does the EC50 read?
**A.** 2.1 nM

same assay, conditions: MT-4 cells infected with HIV-1 NL4-3 strain (MOI 0.05), cultured 5 days, Cell Titer-Glo; read-out: antiviral activity (EC50)

**Q.** With `CCN1C[C@@]2(C[C@@H]2COC)n2cc(C(=O)NCc3cccc(C(F)(F)F)c3F)c(=O)c(O)c2C1=O` [Example T27, (1S,2S)-2′-ethyl-N-(2-fluoro-3-(trifluoromethyl)benzyl)-9′-hydroxy-2-(methoxymethyl)-1′,8′-dioxo-1′,2′,3′,8′-tetrahydrospiro[cyclopropane-1,4′-pyrido[1,2-a]pyrazine]-7′-carboxamide] as the compound, how does the EC50 read?
**A.** 97 nM

**Q.** How did the EC50 turn out when `COC[C@H]1C[C@]2(CN(C)C(=O)c3c(O)c(=O)c(C(=O)NCc4cccc(Cl)c4F)cn32)C1` [Example 32, N-(3-chloro-2-fluorobenzyl)-9′-hydroxy-cis-3-(methoxymethyl)-2′-methyl-1′,8′-dioxo-1′,2′,3′,8′-tetrahydrospiro[cyclobutane-1,4′-pyrido[1,2-a]pyrazine]-7′-carboxamide monosulfate] was run?
**A.** 0.9 nM

**Q.** How did the EC50 turn out when `COC[C@H]1C[C@]2(CN(C)C(=O)c3c(O)c(=O)c(C(=O)NCc4cccc(Cl)c4F)cn32)C1` [Example 33, N-(3-chloro-2-fluorobenzyl)-9′-hydroxy-cis-3-(methoxymethyl)-2′-methyl-1′,8′-dioxo-1′,2′,3′,8′-tetrahydrospiro[cyclobutane-1,4′-pyrido[1,2-a]pyrazine]-7′-carboxamide 4-methylbenzenesulfonate] was run?
**A.** 0.9 nM
